This note sets out measurements from patent publication US20260026479A1, “GENETICALLY ENGINEERED MICE MODELS FOR MULTIPLE MYELOMA” (FUNDACIÓN PARA LA INVESTIGACIÓN MÉDICA APLICADA, priority 2022, published 2026).

In assay [1] the test system is MYC. The assay is described as follows: MYC expression and phosphorylation after treatment (Western blot, qRT-PCR), mouse MM cell lines. It is filed as cell-based. The method, then:
(§1) A total of 1 μg of total RNA from GFP^+-sorted cells was isolated with a NucleoSpin RNA kit (Macherey-Nagel) and reverse transcribed into cDNA using MMLV enzyme technology (Invitrogen). PCR was performed on an ABI Viia7 instrument using SYBR green fluorophore and primers designed to amplify specific mouse or human genes. Specific primers are listed in the Key Resources Table.
(§2) Mice were monitored twice weekly for signs of disease and were then sacrificed. […] The samples that were able to grow for weeks ex vivo were tested for the presence of the original transgenic lesions and then characterized. Eight MM-derived cells lines established from mice carrying different lesions. In vitro therapy assays. For viability assays, murine or human MM cells were seeded in 96-well black culture plates and treated with different drugs alone or in combination for 48 hours. Cell viability was quantified using a Deep Blue Cell Viability™ Kit (Biolegend) and analyzed with a Skanit Varioskan Flash 2.4.3 (Thermo Scientific) fluorometer. Treatments were administered to cells at a density of 0.3×10^6 cells/ml, and all tests were performed in triplicate. After treatment, cells were subjected to qRT-PCR or Western blot analyses, as indicated, according to previously reported methods.
Background: In western blotting, separated proteins are transferred to a membrane and probed.

The subject of a further assay is murine MM cells. The assay is described as follows: In vitro viability assay, murine MM-derived cell lines. It is filed as cell-based, mouse. To be noted: 48 hours, Deep Blue Cell Viability Kit. The method, then: as §2
The target of assay [2] is T1, MYC (Homo sapiens, UniProt P01106).
T1 construct: Western blot analysis of MYC protein expression in human MM cell lines; endogenous in cells; host or cells: human MM cell lines (of RPMI8226, KMS12, KMS26, KMS11, MM1S, U266, K620, JJN3, H929, MOLP2)
Briefly: MYC expression and phosphorylation after treatment (Western blot, qRT-PCR), human MM cell lines. In kind it is cell-based. On the procedure:
as §1
(§3) Ten cell lines derived from MM patients (RPMI8226, KMS12, KMS26, KMS11, MM1S, U266, K620, JJN3, H929, and MOLP2) were included in this study. All have been validated according to the AmpFLSTR® Identifiler®, were tested for Mycoplasma sp.
as §2, with “After treatment, cells were subjected to qRT-PCR or Western blot analyses, as indicated, according to previously reported methods.” left out

The subject of another assay is human MM cells. Briefly: In vitro viability assay, human MM cell lines. To be noted: 48 hours, Deep Blue Cell Viability Kit. It is filed as cell-based. The method, then: as §3, §2

T1 sequence (P01106 whole entry): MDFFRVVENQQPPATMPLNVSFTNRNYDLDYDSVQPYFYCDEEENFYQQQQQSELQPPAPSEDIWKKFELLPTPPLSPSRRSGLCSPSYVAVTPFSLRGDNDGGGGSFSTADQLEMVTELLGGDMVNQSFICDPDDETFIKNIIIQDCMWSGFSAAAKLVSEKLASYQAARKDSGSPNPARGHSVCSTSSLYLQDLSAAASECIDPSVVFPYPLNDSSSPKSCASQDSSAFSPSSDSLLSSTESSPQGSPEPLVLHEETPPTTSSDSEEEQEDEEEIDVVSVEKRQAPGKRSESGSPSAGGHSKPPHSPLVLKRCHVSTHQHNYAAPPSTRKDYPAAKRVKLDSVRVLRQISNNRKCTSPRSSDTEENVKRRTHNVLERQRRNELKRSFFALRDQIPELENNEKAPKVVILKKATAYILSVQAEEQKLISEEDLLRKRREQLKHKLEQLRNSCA

Consider MYCi975, for which the MYC protein expression result in the assay on MYC [1] and on MYC [2] was “dose-dependent MYC protein reduction” each time. Besides, the MM cell viability entry with murine MM cells and in the assay on human MM cells was “decreased viability” each time.
